# The supplement of paper PMC9938120
# Assays:
# Assay in all cases: drug sensitivity score (DSS3, normalised partial AUC of % inhibition dose-response) (DSS (score)); higher = more sensitive (stronger inhibition of viability); extreme values may be limits of the assay
# FMOC02_2 = patient-derived low-grade serous ovarian cancer cells; conditions: 72 h; library: FO5A; assay format: 2D, 384-well, CellTiter-Glo
# In short: (§1)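 Cells were dispensed onto 384-well flat clear-bottom plates already holding compounds at five concentrations over a 10,000-fold range, using patient-derived ovarian cancer cells at passage under 10. Incubation lasted 72 h at 37 °C in 5% CO2, after which CellTiter-Glo viability data were processed in Breeze. Higher drug sensitivity scores, each a partial area under the percent-inhibition dose-response curve divided by the log of the upper asymptote, mean more sensitive cells.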
# FMOC02_3 = patient-derived low-grade serous ovarian cancer cells; conditions: 72 h; library: FO5A; assay format: 2D, 384-well, CellTiter-Glo
# In short: as §1
# FMOC03 = patient-derived mucinous ovarian cancer cells; conditions: 72 h; library: FO5A; assay format: 2D, 384-well, CellTiter-Glo
# In short: as §1
# FMOC06 = patient-derived mucinous ovarian cancer cells; conditions: 72 h; library: FO5A; assay format: 2D, 384-well, CellTiter-Glo
# In short: as §1
# FMOC09 = patient-derived high-grade serous ovarian cancer cells; conditions: 72 h; library: FO5A; assay format: 2D, 384-well, CellTiter-Glo
# In short: as §1
# FMOC14 = patient-derived high-grade serous ovarian cancer cells; conditions: 72 h; library: FO5A; assay format: 2D, 384-well, CellTiter-Glo
# In short: as §1
# FMOC22 = patient-derived mucinous ovarian cancer cells; conditions: 72 h; library: FO5A; assay format: 2D, 384-well, CellTiter-Glo
# In short: as §1
# FMOC24 = patient-derived high-grade serous ovarian cancer cells; conditions: 72 h; library: FO5A; assay format: 2D, 384-well, CellTiter-Glo
# In short: as §1
# FMOC25_1 = patient-derived low-grade serous ovarian cancer cells; conditions: 72 h; library: FO4B; assay format: 2D, 384-well, CellTiter-Glo
# In short: as §1
# FMOC25_2 = patient-derived low-grade serous ovarian cancer cells; conditions: 72 h; library: FO5A; assay format: 2D, 384-well, CellTiter-Glo
# In short: as §1
Compound,drug sensitivity score (FMOC02_2),drug sensitivity score (FMOC02_3),drug sensitivity score (FMOC03),drug sensitivity score (FMOC06),drug sensitivity score (FMOC09),drug sensitivity score (FMOC14),drug sensitivity score (FMOC22),drug sensitivity score (FMOC24),drug sensitivity score (FMOC25_1),drug sensitivity score (FMOC25_2)
COc1cccc2c1C(=O)c1c(O)c3c(c(O)c1C2=O)C[C@@](O)(C(=O)CO)C[C@@H]3O[C@H]1C[C@H](N)[C@H](O)[C@H](C)O1 [Doxorubicin],2.9,7.2,2.6,4.3,6.5,3.6,4.5,5.65,7.7,8
CN[C@@H](C)C(=O)N[C@H]1CN(C(=O)CC(C)C)CC[C@H]2CC[C@@H](C(=O)NC(c3ccccc3)c3ccccc3)N2C1=O [AT-406],0,0.3,1.5,8.8,0,5.4,0,24.9,1.5,5
CC[C@]1(O)C[C@@H]2CN(CCc3c([nH]c4ccccc34)[C@@](C(=O)OC)(c3cc4c(cc3OC)N(C)[C@H]3[C@@](O)(C(=O)OC)[C@H](OC(C)=O)[C@]5(CC)C=CCN6CC[C@]43[C@@H]65)C2)C1 [Vinblastine],3.7,17.2,7.5,2.4,8.3,0,6.8,0.45,10.9,15.9
CC(C)[C@H](C(=O)Nc1ccc(C(=O)NO)cc1)c1ccccc1 [AR-42],11,8.8,12.4,10.6,5.2,11.5,8.7,9.3,10.1,10.7
O=C(NOCCO)c1ccc2cncn2c1Nc1ccc(I)cc1F [GDC-0623],7.3,5.3,1.3,6.1,4,0.1,7.2,1.35,9.6,11.2
C=CC(=O)N1CCC(Oc2cc3c(Nc4ccc(Cl)c(Cl)c4F)ncnc3cc2OC)CC1 [Poziotinib],24.2,21.8,24.6,6.1,16.7,6.5,0.8,2.1,10.5,20.3
COc1ccc(S(=O)(=O)Nc2cccnc2Nc2ccc(O)cc2)cc1 [ABT-751],9.4,9.5,7.4,7,7.3,1.3,6.8,1.8,5,6.8
O=C(NOC[C@H](O)CO)c1ccc(F)c(F)c1Nc1ccc(I)cc1F,10.4,7,11.5,11.3,8,0.2,7.5,0.2,7,5.2
Nc1ncnc2c1nc(Cl)n2[C@@H]1O[C@H](CO)[C@@H](O)[C@H]1O [8-chloro-adenosine],19.7,18.2,2.4,4.1,5.5,3.3,3.2,6,11.4,15.2
CCC1=C[C@@H]2CN(C1)Cc1c([nH]c3ccccc13)[C@@](C(=O)OC)(c1cc3c(cc1OC)N(C)[C@H]1[C@@](O)(C(=O)OC)[C@H](OC(C)=O)[C@]4(CC)C=CCN5CC[C@]31[C@@H]54)C2 [Vinorelbine],14.8,23.1,17.9,17.1,17.9,2.4,16.3,6.6,17.7,17.8
CO[C@@H](C(=O)N1Cc2[nH]nc(NC(=O)c3ccc(N4CCN(C)CC4)cc3)c2C1)c1ccccc1 [Danusertib],5.7,10.1,4.7,4.7,8.7,1.4,0,4.3,3.1,8
CCS(=O)(=O)c1cccc(-c2cc(C(=O)NC3CCN(C)CC3)c(C)c3[nH]c4ncc(C)cc4c23)c1 [TAK-901],1,5.3,1.2,2,7,0,1.2,1.15,2.2,5.7
Nc1ccn([C@@H]2O[C@H](CO)[C@@H](O)[C@@H]2O)c(=O)n1 [Cytarabine],8.3,9.3,2.3,2.4,6.9,0,6.4,0.6,3.4,6.3
CN(C)C1CCN(C(=O)c2ccc(NC(=O)Nc3ccc(-c4nc(N5CCOCC5)nc(N5CCOCC5)n4)cc3)cc2)CC1 [Gedatolisib],8.2,13.3,8.2,12.4,11.3,10.2,10.7,9.05,16.3,19.9
CC(=O)O[C@H]1C(=O)[C@@]2(C)[C@H]([C@H](OC(=O)c3ccccc3)[C@]3(O)C[C@H](OC(=O)[C@H](O)[C@@H](NC(=O)c4ccccc4)c4ccccc4)C(C)=C1C3(C)C)[C@]1(OC(C)=O)CO[C@@H]1C[C@@H]2O [Paclitaxel],8.7,17,11.9,10.1,13.6,0.4,12.5,0.1,6.7,16.7
O=C(c1ccc(F)c(F)c1Nc1ccc(I)cc1F)N1CC(O)([C@@H]2CCCCN2)C1 [Cobimetinib],13.3,13.7,10.3,9,6.1,0.1,7.5,1.8,10,9.2

Compound,drug sensitivity score (FMOC02_2),drug sensitivity score (FMOC02_3),drug sensitivity score (FMOC03),drug sensitivity score (FMOC06),drug sensitivity score (FMOC09),drug sensitivity score (FMOC14),drug sensitivity score (FMOC22),drug sensitivity score (FMOC24),drug sensitivity score (FMOC25_1),drug sensitivity score (FMOC25_2)
CCc1cnn2c(NCc3ccc[n+]([O-])c3)cc(N3CCCC[C@H]3CCO)nc12 [Dinaciclib],22.1,25,16.4,20.2,10.3,18.5,13.1,18.8,17.6,28.3
CO[C@@H]1[C@H](N(C)C(=O)c2ccccc2)C[C@H]2O[C@]1(C)n1c3ccccc3c3c4c(c5c6ccccc6n2c5c31)C(=O)NC4 [Midostaurin],21.7,16.9,5,9.1,10.6,3,4.5,9.3,14.5,21.2
CO[C@H]1C[C@@H]2CC[C@@H](C)[C@@](O)(O2)C(=O)C(=O)N2CCCC[C@H]2C(=O)O[C@H]([C@H](C)C[C@@H]2CC[C@@H](OP(C)(C)=O)[C@H](OC)C2)CC(=O)[C@H](C)/C=C(\C)[C@@H](O)[C@@H](OC)C(=O)[C@H](C)C[C@H](C)/C=C/C=C/C=C/1C [Ridaforolimus],11.1,13.8,4.5,5.7,4.2,3.4,9.3,0,10.3,11.8
CN(C)Cc1c(C(=O)NCCOc2ccc(C(=O)NO)cc2)oc2ccccc12 [Abexinostat],16.6,14,12.7,11.7,5.9,13.5,8.5,15.3,13.3,14.2
O=C(Nc1cccc(Nc2ncc(Br)c(NCCc3cnc[nH]3)n2)c1)N1CCCC1 [BX-912],5,7.6,2.4,4.4,2,0.5,2.4,4.65,6.2,7.6
CCn1c(-c2nonc2N)nc2c(C#CC(C)(C)O)ncc(OC[C@H]3CCCNC3)c21,10.3,12.5,2,4.5,2.4,2.7,1.2,1.6,4.5,8.1
C[C@@H]1COC(Nc2ccc3ncnc(Nc4ccc(OCc5nccs5)c(Cl)c4)c3c2)=N1 [Varlitinib],12.5,6.3,9,0.3,6.5,0.5,0.1,0.5,8.3,5.1
NS(=O)(=O)OC[C@@H]1C[C@@H](n2ccc3c(N[C@H]4CCc5ccccc54)ncnc32)C[C@@H]1O [Pevonedistat],10.2,10.6,8.2,4.1,10.1,0.3,12.6,10.7,11.5,20.5
COc1cc(Br)c(Nc2nc(-c3c(C)nc4ncccn34)cs2)c(Br)c1 [PTC-209],5.5,4.6,4.6,3.5,6,2.7,4.5,1.35,6.3,8.4
Cc1nc(=O)c2cc(CN(C)c3ccc(C(=O)N[C@@H](CCC(=O)O)C(=O)O)s3)ccc2[nH]1 [Raltitrexed],0,0,1.5,0,0,0.3,3.8,0.05,0.1,1.3
CCCCCCCCc1ccc(CCC(N)(CO)CO)cc1 [Fingolimod],7.7,6.1,5.1,7,6,7.3,5.3,10.8,6.2,5.7
CO[C@H](C(=O)[C@@H](O)[C@@H](C)O)[C@@H]1Cc2cc3cc(O[C@H]4C[C@@H](O[C@@H]5C[C@@H](O)[C@H](O)[C@@H](C)O5)[C@H](O)[C@@H](C)O4)c(C)c(O)c3c(O)c2C(=O)[C@H]1O[C@H]1C[C@@H](O[C@@H]2C[C@@H](O)[C@@H](O[C@@H]3C[C@](C)(O)[C@H](O)[C@@H](C)O3)[C@@H](C)O2)[C@H](O)[C@@H](C)O1 [Plicamycin],9,16.7,4.6,6.2,2.6,10.1,5.1,9,7,29.1
CCN(CC)Cc1ccc2cc(COC(=O)Nc3ccc(C(=O)NO)cc3)ccc2c1 [Givinostat],7.1,5.9,6.1,5.2,1.5,4.4,4.7,5.45,5.2,4
CN(Cc1cnc2nc(N)nc(N)c2n1)c1ccc(C(=O)N[C@@H](CCC(=O)O)C(=O)O)cc1 [Methotrexate],0,0,0,0,0,0,0,0,0,0.2
CC(C)C[C@H](NC(=O)[C@H](Cc1ccccc1)NC(=O)c1cnccn1)B(O)O [Bortezomib],28.8,24.9,28.2,26.2,20.4,28.5,28.4,30.8,27.2,30.1
